From ChEMBL document CHEMBL4842374, “Natural inspired piperine-based sulfonamides and carboxylic acids as carbonic anhydrase inhibitors: Design, synthesis and biological evaluation” (Eur J Med Chem, 2021)

What was measured:
Carbonic anhydrase 9 = Carbonic anhydrase 9 (Homo sapiens, UniProt Q16790)
Description: Inhibition of human CA9 measured after 15 mins by stopped flow carbon dioxide anhydrase assay

Carbonic anhydrase 2 = Carbonic anhydrase 2 (Homo sapiens, UniProt P00918); test: Inhibition of human CA2 measured after 15 mins by stopped flow carbon dioxide anhydrase assay
Carbonic anhydrase 12 = Carbonic anhydrase 12 (Homo sapiens, UniProt O43570); test: Inhibition of human CA12 measured after 15 mins by stopped flow carbon dioxide anhydrase assay
Carbonic anhydrase 1 = Carbonic anhydrase 1 (Homo sapiens, UniProt P00915); test: Inhibition of human CA1 measured after 15 mins by stopped flow carbon dioxide anhydrase assay
MCF7 [1] = test: Induction of apoptosis in human MCF7 cells assessed as necrotic cells measured by AnnexinV/FITC staining based flow cytometry assay ( Rvb = 0.74%); assay type: functional
MCF7 [2] = test: Induction of apoptosis in human MCF7 cells assessed as late apoptotic cells measured by AnnexinV/FITC staining based flow cytometry assay ( Rvb = 0.17%); assay type: functional
MCF7 [3] = test: cells; assay type: functional, cell-based; conditions: Homo sapiens, MCF7, 48 h
Description: Antiproliferative activity against human MCF7 cells assessed as inhibition of cell proliferation measured after 48 hrs by MTT assay

MCF7 [4] = test: Induction of apoptosis in human MCF7 cells assessed as early apoptotic cells measured by AnnexinV/FITC staining based flow cytometry assay ( Rvb = 0.52%); assay type: functional

Sequence of Carbonic anhydrase 12 (O43570 whole entry): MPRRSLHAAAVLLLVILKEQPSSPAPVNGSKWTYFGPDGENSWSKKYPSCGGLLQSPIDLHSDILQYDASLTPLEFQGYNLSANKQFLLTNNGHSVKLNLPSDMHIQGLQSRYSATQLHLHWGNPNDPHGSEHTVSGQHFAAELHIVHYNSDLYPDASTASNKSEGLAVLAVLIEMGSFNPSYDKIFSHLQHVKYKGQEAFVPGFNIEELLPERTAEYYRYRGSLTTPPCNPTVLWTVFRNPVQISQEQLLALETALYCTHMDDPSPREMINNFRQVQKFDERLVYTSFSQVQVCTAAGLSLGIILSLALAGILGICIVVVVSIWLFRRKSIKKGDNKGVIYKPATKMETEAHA
Sequence of Carbonic anhydrase 1 (P00915 whole entry): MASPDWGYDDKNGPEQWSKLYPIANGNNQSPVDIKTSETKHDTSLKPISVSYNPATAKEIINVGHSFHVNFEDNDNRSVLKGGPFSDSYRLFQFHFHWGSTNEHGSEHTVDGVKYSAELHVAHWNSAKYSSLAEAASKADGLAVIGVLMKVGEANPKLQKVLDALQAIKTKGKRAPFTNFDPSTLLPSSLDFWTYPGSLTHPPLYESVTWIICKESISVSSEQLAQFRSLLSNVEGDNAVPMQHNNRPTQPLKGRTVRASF

Row | SMILES | Ki (Carbonic anhydrase 9) [µM] | Ki (Carbonic anhydrase 2) [µM] | Ki (Carbonic anhydrase 12) [µM] | Ki (Carbonic anhydrase 1) [µM] | further results
1 | COC(=O)c1cccc(NC(=O)N/C=C/C=C/c2ccc3c(c2)OCO3)c1 | > 100 | > 100 | > 100 | > 100 | –
2 | O=C(N/C=C/C=C/c1ccc2c(c1)OCO2)Nc1cccc(C(=O)O)c1 | 24.8 | – | – | > 100 | –
3 | O=C(N/C=C/C=C/c1ccc2c(c1)OCO2)Nc1ccc(C(=O)O)cc1 | 16.1 | – | – | > 100 | –
4 | CC(=O)c1ccc(NC(=O)N/C=C/C=C/c2ccc3c(c2)OCO3)cc1 | > 100 | > 100 | > 100 | > 100 | –
5 | COC(=O)c1ccc(NC(=O)N/C=C/C=C/c2ccc3c(c2)OCO3)cc1 | > 100 | > 100 | > 100 | > 100 | –
6 | O=C(N/C=C/C=C/c1ccc2c(c1)OCO2)Nc1ccccc1C(=O)O | 30.3 | – | – | > 100 | –
7 | O=C(N/C=C/C=C/c1ccc2c(c1)OCO2)Nc1ccc(S(=O)(=O)Nc2nccs2)cc1 | > 100 | > 100 | > 100 | > 100 | –

Stronger by Ki (Carbonic anhydrase 9), values ahead:

Row | Ki (Carbonic anhydrase 9) [µM] | Ki (Carbonic anhydrase 2) [µM] | Ki (Carbonic anhydrase 12) [µM] | Ki (Carbonic anhydrase 1) [µM] | SMILES | further results
8 | 0.0682 | – | – | – | NS(=O)(=O)c1ccc(CCNC(=O)N/C=C/C=C/c2ccc3c(c2)OCO3)cc1 | –
9 | 0.903 | – | – | – | Cc1ccc(NC(=O)N/C=C/C=C/c2ccc3c(c2)OCO3)cc1S(N)(=O)=O | –
10 | 0.0387 | – | – | – | NS(=O)(=O)c1ccc(NC(=O)N/C=C/C=C/c2ccc3c(c2)OCO3)cc1 | Activity (MCF7 [1]): 14.19%; Activity (MCF7 [2]): 23.14%; IC50 (MCF7 [3]): 2.17 µM; Activity (MCF7 [4]): 1.91%
11 | 0.739 | – | – | – | NS(=O)(=O)c1ccccc1NC(=O)N/C=C/C=C/c1ccc2c(c1)OCO2 | –
12 | 0.319 | – | – | – | NS(=O)(=O)c1cccc(NC(=O)N/C=C/C=C/c2ccc3c(c2)OCO3)c1 | –
